# Laboratory results published in publication PMC10489817, “2-Alkyl-Substituted-4-Amino-Thieno[2,3-d]Pyrimidines: Anti-Proliferative Properties to In Vitro Breast Cancer Models” (Molecules, 2023).
# Where two headings read alike, the source gives them in different places.
# Key:
# MDA-MB-435 = tested on: MDA-MB-435; set-up: method as in PMID 23538397; details: cited from earlier work
# [1] = tested on: A549, HCT116 and MCF-7 cell lines; set-up: method as in doi:10.1016/j.cclet.2014.05.043; details: cell line not stated; cited from earlier work
# MCF-7 = assay: MTT anti-proliferative test, MCF-7; assay type: cell-based, human; details: for IC50: Homo sapiens, MCF7, MTT
# Description: (§1) The MCF-10A cell line (normal human mammary epithelial cells) served as a reference control.
# (§2) All breast cell lines (MCF-10A, MCF-7, and MDA-MB-231) were purchased from the American Type Culture Collection—ATCC (Manassas, VA, USA). The MCF-7 and MDA-MB-231 were cultivated in Dulbecco’s modified Eagle’s medium (DMEM) and supplemented with 10% fetal bovine serum (FBS), 1% sodium pyruvate, and 1% MEM non-essential amino acids (NEAA) without antibiotics. The non-tumorigenic breast cell line (MCF-10A) was cultivated in DMEM medium (Sigma-Aldrich, St. Louis, MO, USA) and supplemented with 10% FBS, 1% sodium pyruvate, 1% non-essential amino acids (NEAA), 20 ng/mL human epithelia growth factor (hEGF), 10 μg/mL insulin, and 0.5 μg/mL hydrocortisone without antibiotics. All cell lines were maintained in a humidified atmosphere, with 5% CO2 at 37 °C.
# (§3) Using the standard MTT-dye reduction assay described by Mosmann, the anti-proliferative activity was tested. The method is based on the metabolism of the tetrazolium salt MTT to insoluble formazan. The formazan absorption was registered using a microplate reader at λ = 540 nm. The measured absorption is an indicator of cell viability and metabolic activity. Anti-proliferative activities were expressed as IC50 values (concentrations required for 50% inhibition of cell growth), calculated using non-linear regression analysis (GraphPad Software, San Diego, CA, USA).
# [2] = in vitro 3T3 NRU test, cytotoxicity; assay type: cell-based, mouse; details: mouse, BALB/3T3 clone A31 cells (mouse embryo fibroblasts)
# Description: (§4) Compounds 2–5 were studied for cytotoxicity/phototoxicity by an in vitro 3T3 NRU-test. The cell line BALB 3T3, clone A31 (mouse embryo fibroblasts), was incubated with the test compounds at a concentration from 15 to 4000 µg/mL for 24 h at 37 °C, 5% CO2, and 95% humidity. The cytotoxicity and phototoxicity were expressed in percentages relative to the negative control determined. […] Based on the dose–response curves, the CC50/PC50 values (50% cytotoxic/phototoxic concentration) were calculated by nonlinear regression analysis (Table 1). The CC50 values can be used to calculate the PIF (photo-irritancy factor) for each test compound according to the following formula: PIF = CC50/PC50.
# (§5) BALB/3T3 cells were cultured in 75 cm^2 tissue culture flasks in DMEM, 10% FBS, 2 mM glutamine, and antibiotics (penicillin 100 U/mL and streptomycin-100 µg/mL) at 37 °C, 5% CO2, and 90% relative humidity. Cytotoxicity/phototoxicity was assessed by a validated BALB/3T3 clone A31 neutral red uptake assay (3T3 NRU test). Briefly, cells were plated in a 96-well microtiter plate at a density of 1 × 10^4 cells/100 µL/well and incubated for 24 h. A wide concentration range was applied for the test compounds. For the phototoxicity tests, 96-well plates were irradiated with a dose of 2.4 J/cm^2, and the cells were incubated for an additional 24 h. After treatment with neutral red medium, washing, and treatment with the ethanol/acetic acid solution, the absorption was measured on a TECAN microplate reader (TECAN, Grödig, Austria) at a wavelength of 540 nm. The light source which we used was a light-emitting diode (LED) matrix—an artificial solar light simulator Helios-iO, model LE-9ND55-H—5500K (SERIC Ltd., Tokyo, Japan).
# Cytotoxicity/phototoxicity were expressed as CC50/PC50 values (concentrations required for 50% cytotoxicity/phototoxicity), calculated using non-linear regression analysis (GraphPad Software GraphPad Prism 9.5.1, San Diego, CA, USA). The CC50 values were used to calculate the PIF (photo-irritancy factor) for each test substance, according to the following formula: […]
# BALB 3T3 cells = assay: in vitro 3T3 NRU test, phototoxicity; assay type: cell-based, mouse; details: for IC50: Mus musculus, light or radiation study
# Description: as §4, §5
# Cytotoxicity/phototoxicity were expressed as CC50/PC50 values (concentrations required for 50% cytotoxicity/phototoxicity), calculated using non-linear regression analysis (GraphPad Software GraphPad Prism 9.5.1, San Diego, CA, USA). The CC50 values were used to calculate the PIF (photo-irritancy factor) for each test substance, according to the following formula:
# PIF = Cytotoxicity (CC50)/Phototoxicity (PC50)
# MCF-10A = assay: MTT anti-proliferative test, MCF-10A; assay type: cell-based; details: Homo sapiens
# Description: as §1, §2, §3
# MDA-MB-231 = assay: MTT anti-proliferative test, MDA-MB-231; assay type: cell-based, human
# Description: as §1, §2, §3
smiles,measurement,setting,value
"Cc1sc2nc(NCc3ccccc3)[nH]c(=O)c2c1C [2-(benzylamino)-5,6-dimethylthieno[2,3-d]pyrimidin-4(3H)-one]",growth percent (GP),MDA-MB-435,−31.02%
"Cc1cc2c(OCc3cc(-c4ccc(Cl)cc4)no3)ncnc2s1 [6-methyl-4-{[3-(4-chlorophenyl)-isoxazol-5-yl-]-methoxy}-thieno[2,3-d]pyrimidine]",IC50,[1],0.00421 µM
"N.N.[Cl][Pt][Cl] [Cisplatin, reference compound]",selective index in the positive control,"MCF-7; tumor cell line not stated, paragraph on MCF-7",25
"CCOC(=O)c1sc2nc(CCCl)nc(N)c2c1C [Compound 3, Ethyl 4-Amino-2-(2-Chloroethyl)-5-Methylthieno[2,3-d] Pyrimidine-6-Carboxylate]",IC50 at 24 h,"[2]; BALB 3T3, 24 h, NRU, no irradiation (CC50), read-out: IC50 of Mean ± SD, Cytotoxicity",674 ± 31.8 µg/mL
same,IC50 at 24 h,"[2]; BALB 3T3, value in brackets, read-out: IC50, Cytotoxicity (converted)",2200 µM
same,IC50,"BALB 3T3 cells; BALB 3T3, irradiated 2.4 J/cm^2 (PC50), read-out: IC50 of Mean ± SD, Phototoxicity",545 ± 40.1 µg/mL
same,IC50,"BALB 3T3 cells; BALB 3T3, irradiated, value in brackets, read-out: IC50, Phototoxicity (converted)",1900 µM
same,PIF (photo-irritancy factor),"BALB 3T3 cells; PIF = CC50/PC50, <2 not phototoxic",1.2
same,IC50,MCF-10A; read-out: IC50 MCF-10A (converted),100 µM
same,IC50,"MCF-10A; read-out: IC50 of Mean ± SD, Anti-Proliferative Activity MCF-10A",45.3 ± 3.5 µg/mL
same,IC50,MCF-7; read-out: IC50 MCF-7 (converted),45 µM
same,IC50,MCF-7; read-out: IC50 MCF-7 (text),13.4 µg/mL
same,IC50,"MCF-7; read-out: IC50 of Mean ± SD, Anti-Proliferative Activity MCF-7",13.4 ± 0.8 µg/mL
same,SI (selective index) MCF-7,MCF-7; IC50 MCF-10A/IC50 MCF-7,3.4
same,IC50,"MDA-MB-231; Homo sapiens, MDA-MB-231, MTT, read-out: IC50 MDA-MB-231 (converted)",400 µM
same,IC50,"MDA-MB-231; Homo sapiens, MDA-MB-231, MTT, read-out: IC50 of Mean ± SD, Anti-Proliferative Activity MDA-MB-231",131 ± 3 µg/mL
same,SI (selective index) MDA-MB-231,MDA-MB-231; IC50 MCF-10A/IC50 MDA-MB-231,0.3
same,IC50,"MDA-MB-231; MTT, read-out: IC50 MDA-MB-231 (converted)",440 µM
same,melting point,,163 to 165 °C
